These compounds were tested against T1, 3-oxoacyl-[acyl-carrier-protein] synthase 3 (Mycobacterium tuberculosis (strain ATCC 25618 / H37Rv), UniProt P9WNG3) (assay: 3D-QSAR).
T1 sequence (P9WNG3 whole entry): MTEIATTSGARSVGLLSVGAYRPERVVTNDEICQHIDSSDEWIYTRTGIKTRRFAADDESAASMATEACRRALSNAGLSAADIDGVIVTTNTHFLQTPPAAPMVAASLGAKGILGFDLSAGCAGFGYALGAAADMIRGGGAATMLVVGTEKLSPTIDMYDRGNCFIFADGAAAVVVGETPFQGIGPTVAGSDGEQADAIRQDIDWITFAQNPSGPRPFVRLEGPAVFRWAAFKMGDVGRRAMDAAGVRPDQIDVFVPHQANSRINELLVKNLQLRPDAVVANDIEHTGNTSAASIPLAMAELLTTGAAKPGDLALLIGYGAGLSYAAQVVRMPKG
Experimental: The biological activities of the compounds were evaluated in the same laboratory. Biological activities measured as IC50 were converted to pIC50 (−log(IC50)) for use in the 3D-QSAR study.

How did the IC50 turn out when `CC1=C(O)C(C)(Cc2cccc(C(=O)c3ccccc3)c2)SC1=O` (centres undefined) [mtFabH inhibitor, 40] was run?
Its IC50 is 283 µM.

With `CCCCCCCCCCCCCC1(C)SC(=O)C(C)=C1O` (centres undefined) [mtFabH inhibitor, 26] as the compound, how does the IC50 read?
The IC50 was 80 µM.

With `COC(=O)c1ccc(CC#CC2(C)SC(=O)C(C)=C2O)cc1` (centres undefined) [mtFabH inhibitor, 5] as the compound, how does the IC50 read?
Its IC50 is 74 µM.

Which IC50 does the source give for `CC1=C(O)C(C)(C#CCc2ccc(C#N)cc2)SC1=O` (centres undefined) [mtFabH inhibitor, 7] here?
Its IC50 is 7 µM.

For `CC(=O)Nc1cccc(-c2ccc(CC3(C)SC(=O)C(C)=C3O)cc2)c1` (centres undefined) [mtFabH inhibitor, 25], which IC50 is on record?
The IC50 was 119 µM.

Which IC50 does the source give for `CC1=C(O)C(C)(C#Cc2ccccc2C#N)SC1=O` (centres undefined) [mtFabH inhibitor, 8] here?
Its IC50 is 48 µM.

With `COc1ccc(C2(C)SC(=O)C(C)=C2O)cc1` (centres undefined) [mtFabH inhibitor, 13] as the compound, how does the IC50 read?
Its IC50 is 500 µM.

`CC(=O)c1ccc(C#CC2(C)SC(=O)C(C)=C2O)cc1` (centres undefined) [mtFabH inhibitor, 3] was tested. Which IC50 did it give?
Its IC50 is 4 µM.

With `C#CC1(C)SC(=O)C(C)=C1O` (centres undefined) [mtFabH inhibitor, 2] as the compound, how does the IC50 read?
The IC50 was 100 µM.

How did the IC50 turn out when `CC1=C(O)C(C)(Cc2ccccc2)SC1=O` (centres undefined) [mtFabH inhibitor, 9] was run?
The IC50 was 250 µM.

How did the IC50 turn out when `CC1=C(O)C(C)(C#CCc2ccc([N+](=O)[O-])cc2)SC1=O` (centres undefined) [mtFabH inhibitor, 6] was run?
Its IC50 is 34 µM.

For `CC(=O)c1ccc(C#CC2(C)SC(=O)C(C)=C2O)cc1O` (centres undefined) [mtFabH inhibitor, 4], which IC50 is on record?
The IC50 was 7 µM.

How did the IC50 turn out when `COc1ccc(CC2(C)SC(=O)C(C)=C2O)cc1` (centres undefined) [mtFabH inhibitor, 12] was run?
The IC50 was 155 µM.

How did the IC50 turn out when `CC1=C(O)C(C)(Cc2ccc(C(F)(F)F)cc2)SC1=O` (centres undefined) [mtFabH inhibitor, 27] was run?
The IC50 was 100 µM.

Reference: BindingDB's records for doi:10.3109/14756360903049059 (China Pharmaceutical University, 2010)
